Experiments:
[1] = target: T1, glucocorticoid receptor (Homo sapiens, UniProt P04150); test: Assay for transrepression activity of the glucocorticoid agonists (NF-κB responsive ELAM promoter-sPAP reporter, TNF-stimulated A549 cells); type: cell-based; conditions: compound 1 hour at 37° C., then TNF 10 ng/ml for 16 hours, read-out: pIC50 (transrepression) (converted)
T1 construct: A549 cells stably transfected with a reporter gene; endogenous in cells; host or cells: A549 cells
T1 sequence (P04150 1-777): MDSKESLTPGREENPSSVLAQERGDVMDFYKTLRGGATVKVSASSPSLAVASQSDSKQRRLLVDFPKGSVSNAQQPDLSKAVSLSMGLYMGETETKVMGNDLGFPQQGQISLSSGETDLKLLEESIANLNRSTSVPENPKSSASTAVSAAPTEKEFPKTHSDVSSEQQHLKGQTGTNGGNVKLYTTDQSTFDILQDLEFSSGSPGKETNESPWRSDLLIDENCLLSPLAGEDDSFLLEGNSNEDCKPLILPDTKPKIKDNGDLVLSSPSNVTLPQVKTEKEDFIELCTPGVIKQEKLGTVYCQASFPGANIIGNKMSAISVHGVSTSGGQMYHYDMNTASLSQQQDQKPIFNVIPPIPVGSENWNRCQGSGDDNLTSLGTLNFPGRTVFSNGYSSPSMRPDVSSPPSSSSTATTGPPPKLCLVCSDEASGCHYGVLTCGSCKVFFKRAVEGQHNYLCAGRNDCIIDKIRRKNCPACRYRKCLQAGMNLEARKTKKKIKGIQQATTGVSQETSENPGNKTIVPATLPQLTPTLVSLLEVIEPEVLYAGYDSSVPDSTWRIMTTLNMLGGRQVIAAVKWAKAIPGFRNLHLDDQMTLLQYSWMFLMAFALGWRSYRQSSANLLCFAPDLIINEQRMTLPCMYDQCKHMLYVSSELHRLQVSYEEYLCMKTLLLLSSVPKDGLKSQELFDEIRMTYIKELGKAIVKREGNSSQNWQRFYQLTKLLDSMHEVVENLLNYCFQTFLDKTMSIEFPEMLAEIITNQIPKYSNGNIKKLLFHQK
Description: Assay for Transrepression Activity of the Glucocorticoid Agonists
A549 cells stably transfected with a reporter gene containing the NF-κB responsive elements from the ELAM gene promoter coupled to sPAP (secreted alkaline phosphatase) are treated with test compounds at appropriate doses for 1 hour at 37° C. The cells are then stimulated with tumour necrosis factor (TNF, 10 ng/ml) for 16 hours, at which time the amount of alkaline phosphatase produced is measured by a standard colourimetric assay. Dose response curves were constructed from which EC50 values were estimated.

[2] = target: T1, glucocorticoid receptor; test: Assay for transactivation activity of the glucocorticoid agonists (MMTV-LTR renilla luciferase reporter in A549 cells); type: cell-based; conditions: compound 6 hour at 37° C., read-out: maximal response relative to Dexamethasone (100%) (transactivation)
Description: Assay for Transactivation Activity of the Glucocorticoid Agonists
The functional assay based on that described by R. J. H. Austin et al., Eur Resp J. (2002), 20, 1386-1392 measures the ability of compounds to directly transactivate gene expression. A549 cells stably transfected with a reporter gene containing the glucocorticoid responsive region of the mouse mammary tumour virus long terminal repeat (MMTV-LTR) coupled to renilla luciferase were treated with test compounds at appropriate doses for 6 hour at 37° C. The amount of luciferase activity present within the cells is then determined by measuring the light emitted following incubation with a suitable substrate. Dose response curves were constructed from which EC50 values were estimated and from which maximal responses are calculated relative to Dexamethasone (100%).

Row | Structure (SMILES) | IC50 [1] | Emax [2]
1 | C[C@@H]1C[C@H]2[C@@H]3C[C@H](F)C4=CC(=O)C=C[C@]4(C)[C@@]3(F)[C@@H](O)C[C@]2(C)[C@@]1(OC(=O)OC1CCCC(C)(C)C1)C(=O)OCF (single isomer, unassigned) [Example 19A, Fluoromethyl(6α,11β,16α,17α)-17-({[(3,3-dimethylcyclohexyl)oxy]carbonyl}oxy)-6,9-difluoro-11-hydroxy-16-methyl-3-oxoandrosta-1,4-diene-17-carboxylate] | < 100 pM | –
2 | CC(OC(=O)O[C@]1(C(=O)OCF)[C@H](C)C[C@H]2[C@@H]3C[C@H](F)C4=CC(=O)C=C[C@]4(C)[C@@]3(F)[C@@H](O)C[C@@]21C)C(C)(C)C (single isomer, unassigned) [Example 23A, Fluoromethyl(6α,11β,16α,17α)-6,9-difluoro-11-hydroxy-16-methyl-3-oxo-17-({[(1,2,2-trimethylpropyl)oxy]carbonyl}oxy)androsta-14-diene-17-carboxylate] | < 100 pM | –
3 | C[C@@H]1C[C@H]2[C@@H]3C[C@H](F)C4=CC(=O)C=C[C@]4(C)[C@@]3(F)[C@@H](O)C[C@]2(C)[C@@]1(OC(=O)OC(C)(C)C)C(=O)OCF [Example 1, Fluoromethyl(6α,11β,16α,17α)-17-({[(1,1-dimethylethyl)oxy]carbony}oxy)-6,9-difluoro-11-hydroxy-16-methyl-3-oxoandrosta-1,4-diene-17-carboxylate] | < 100 pM | < 25%
4 | CCC(CC)COC(=O)O[C@]1(C(=O)OCF)[C@H](C)C[C@H]2[C@@H]3C[C@H](F)C4=CC(=O)C=C[C@]4(C)[C@@]3(F)[C@@H](O)C[C@@]21C [Example 6, Fluoromethyl(6α,11β,16α,17α)-17-({[(2-ethylbutyl)oxy]carbonyl}oxy)-6,9-difluoro-11-hydroxy-16-methyl-3-oxoandrosta-1,4-diene-17-carboxylate] | < 100 pM | < 25%
5 | CC(C)C(C)OC(=O)O[C@]1(C(=O)OCF)[C@H](C)C[C@H]2[C@@H]3C[C@H](F)C4=CC(=O)C=C[C@]4(C)[C@@]3(F)[C@@H](O)C[C@@]21C (stereo partly drawn) [Example 9, Fluoromethyl(6α,11β,16α,17α)-17-({[(1,2-dimethylpropyl)oxy]carbonyl}oxy)-6,9-difluoro-11-hydroxy-16-methyl-3-oxoandrosta-1,4-diene-17-carboxylate] | < 100 pM | < 25%
6 | C[C@@H]1C[C@H]2[C@@H]3C[C@H](F)C4=CC(=O)C=C[C@]4(C)[C@@]3(F)[C@@H](O)C[C@]2(C)[C@@]1(OC(=O)OCC1CCCC1)C(=O)OCF [Example 15, Fluoromethyl(6α,11β,16α,17α)-17-({[(cyclopentylmethyl)oxy]carbonyl}oxy)-6,9-difluoro-11-hydroxy-16-methyl-3-oxoandrosta-1,4-diene-17-carboxylate] | < 100 pM | < 25%
7 | CC(OC(=O)O[C@]1(C(=O)OCF)[C@H](C)C[C@H]2[C@@H]3C[C@H](F)C4=CC(=O)C=C[C@]4(C)[C@@]3(F)[C@@H](O)C[C@@]21C)C1CCCC1 (stereo partly drawn) [Example 21A, Fluoromethyl(6α,11β,16α,17α)-17-({[(1-cyclopentylethyl)oxy]carbonyl}oxy)-6,9-difluoro-11-hydroxy-16-methyl-3-oxoandrosta-1,4-diene-17-carboxylate] | < 100 pM | –
8 | C[C@@H]1C[C@H]2[C@@H]3C[C@H](F)C4=CC(=O)C=C[C@]4(C)[C@@]3(F)[C@@H](O)C[C@]2(C)[C@@]1(OC(=O)O[C@@H]1C[C@@H]2CC[C@@]1(C)C2(C)C)C(=O)OCF [Example 27, Fluoromethyl(6α,11β,16α,17α)-6,9-difluoro-11-hydroxy-16-methyl-3-oxo-17-[({[(1S,2R,4S)-1.7.7-trimethylbicyclo[2.2.1]hept-2-yl]oxy}carbonyl)oxy]androsta-1,4-diene-17-carboxylate] | – | < 25%
9 | C[C@@H]1C[C@H]2[C@@H]3C[C@H](F)C4=CC(=O)C=C[C@]4(C)[C@@]3(F)[C@@H](O)C[C@]2(C)[C@@]1(OC(=O)O[C@H]1C[C@H]2CC[C@]1(C)C2(C)C)C(=O)OCF [Example 28, Fluoromethyl(6α,11β,16α,17α)-6,9-difluoro-11-hydroxy-16-methyl-3-oxo-17-[({[(1R,2S,4R)-1,7,7-trimethylbicyclo[2.2.1]hept-2-yl]oxy}carbonyl)oxy]androsta-1,4-diene-17-carboxylate] | – | < 25%
10 | CC1CC2C3CC(F)C4=CC(=O)C=CC4(C)C3(F)C(O)CC2(C)C1(OC(=O)OC1CC2CCC1(C)C2(C)C)C(=O)OCF [Example 29, Fluoromethyl(6α,11β,16α,17α)-6,9-difluoro-11-hydroxy-16-methyl-3-oxo-17-[({[(1R,2R,4R)-1,7,7-trimethylbicyclo[2.2.1]hept-2-yl]oxy}carbonyl)oxy]androsta-1,4-diene-17-carboxylate] | – | < 25%
11 | C[C@@H]1C[C@H]2[C@@H]3C[C@H](F)C4=CC(=O)C=C[C@]4(C)[C@@]3(F)[C@@H](O)C[C@]2(C)[C@@]1(OC(=O)OC1CCCC1)C(=O)OCF [Example 31, Fluoromethyl(6α,11β,16α,17α)-17-{[(cyclopentyloxy)carbonyl]oxy}-6,9-difluoro-11-hydroxy-16-methyl-3-oxoandrosta-1,4-diene-17-carboxylate] | – | < 25%
12 | C[C@@H]1C[C@H]2[C@@H]3C[C@H](F)C4=CC(=O)C=C[C@]4(C)[C@@]3(F)[C@@H](O)C[C@]2(C)[C@@]1(OC(=O)O[C@H]1C(C)(C)[C@H]2CC[C@]1(C)C2)C(=O)OCF [Example 33, Fluoromethyl(6α,11β,16α,17α)-6,9-difluoro-11-hydroxy-16-methyl-3-oxo-17-[({[(1R,2R,4S)-1,3,3-trimethylbicyclo[2.2.1]hept-2-yl]oxy}carbonyl)oxy]androsta-1,4-diene-17-carboxylate] | – | < 25%

From patent US20080249077A1, “17.Beta.-Fluoromethoxycarbonyl-Androst-4-En-3-One Compounds With a 17.Alpha.-Carbonate Sustituent” (priority 2005, published 2008)
